Test results as given in a melting point compilation (Tetko et al.; mined from patent text by program, amines drawn as free bases though some values may be those of a salt).

SMILES	melting point
C=CCOC(=O)Nc1ccc(C2=NNC(=O)CC2C)cc1 (stereo not given)	206 to 207 °C
C[C@@H]1c2cc(F)ccc2-c2ccc(F)cc2N1S(=O)(=O)c1ccc(O)cc1O	153 to 156 °C
NC(=O)c1ncn2c1[C@@H]1CCN1C(=O)c1sccc1-2	> 250 °C
CCc1n[nH]c(CC)c1CCOCCOc1ccc(OC)cc1Cl	90 to 92 °C
CC(C)CC(C=O)NC(=O)C(Cc1c[nH]cn1)NC(=O)C(CNC(=O)Cc1cccc2ccccc12)Cc1ccccc1 (stereo not given)	105 to 109 °C
CCOC(=O)C1=C(C)NC(C)=C(C(=O)OCC)C1c1cc(Cl)cc(Cl)c1	102 to 104 °C
COc1nc(-c2ccc(Cl)cc2)nc(Cl)c1Cl	157 to 159 °C
CC(=O)Oc1ccc(Cc2n[nH]c3c2c(=O)n(-c2ccccc2)c2ncccc32)cc1	278 to 282 °C
O=C1c2cccc3c(N4CCCCC4)c(Br)cc(c23)C(=O)N1O	> 250 °C
COC(=O)C(c1ccccc1)N1CCN(c2ccc(NC(=O)c3ccccc3-c3ccccc3)cc2)CC1 (stereo not given)	125 °C
CCOC(=O)c1c(N)nc(-c2ccc([N+](=O)[O-])cc2)c([N+](=O)[O-])c1C(=O)OCC	148 to 150 °C
COc1cc2c(cc1OC)NC(C)C(=O)N2 (stereo not given)	151 °C
C#CC1C2=C(c3ccc(OCc4ccccc4)cc3N1C(=O)Oc1ccccc1)C(O[Si](C)(C)C(C)(C)C)CCC2 (stereo not given)	76.5 to 78.2 °C
CCOC(=O)C(CCCN(C)CCc1ccc(OC)c(OC)c1)(C(=O)OCC)c1ccc(OC)c(OC)c1	101 to 104 °C
Nc1ncnc2c1ncn2[C@@H]1CO[C@H](CO)[C@@H](O)C1	237 to 239 °C
COC(=O)c1ccc(N2CCC(c3ccc4c(c3)C(C)(C)CCC4(C)C)=N2)cc1	276 to 278 °C
COCCOc1ccc(OCC(O)CNCCNC(=O)N2CCOCC2)cc1 (stereo not given)	69 °C
Cc1ccc(S(=O)(=O)Nc2ccccc2C(=O)C2CC2)cc1	92 to 100 °C
O=c1ccc(C(F)(F)F)cn1Cc1ccc(NCCCN2CCCCC2)cc1	168 to 170 °C
CC(=O)c1cc2c(Br)ccc(OC(C)c3ccccc3)c2o1 (stereo not given)	129 to 132 °C

SMILES	melting point
COc1ccc2cc(O)c(C(C)(C)O)cc2c1	148 to 150 °C
O=c1c2ccccc2ccn1CCC#Cc1ccccn1	85 to 90 °C
CC(C)CC(=O)N1CCC(c2nc3cc(-c4ccc(-n5cnnn5)cc4F)ccc3o2)CC1	168 to 172 °C
COC(=O)CNc1cc(F)cc(F)c1	75 to 77 °C
CC(=O)Nc1ccc(-c2ccc(C(=O)O)c(=O)[nH]2)cc1	> 260 °C
N=C(N)c1ccc(N2CCN(c3ccc(S(=O)(=O)CC(=O)O)cc3)C2=O)cc1	> 260 °C
Fc1ccc(CBr)c(I)c1	71 to 73 °C
N#Cc1ccc(-c2cnc3c(c2)N(Cc2ccccc2)C(=O)CN3)cn1	> 200 °C
COC(=O)C1=C(C)NC(C)=CC1c1ccccc1OCc1ccc(C)cc1 (stereo not given)	107 to 109 °C
O=C(Nc1ccc2[nH]c(C(F)(F)F)nc2c1)C(=O)N1CCC(Cc2ccccc2)CC1	142 °C
COC(=O)C1=Cc2cc(O)ccc2S(=O)(=O)CC1	176 to 178 °C
N#Cc1ccc2oc(-c3ccccc3)cc2c1	138 to 141 °C
Cn1c(CN2CC=C(/C=C/c3ccccc3)CC2)nc2ccccc21	188 to 190 °C
COC(=O)c1c(OCc2ccccc2)ccc2c1CCCC2=NO	135 to 137 °C
COc1cccc(N)c1C#N	143 to 146 °C
CC(C)CCN1C(=O)C(NC(=O)Nc2ccccc2)C(=O)Nc2ccccc21 (stereo not given)	249 to 250 °C
NC(=O)CNC(=O)c1cccc(-c2cccc3cc(Cc4cc(F)cc(Cl)c4)sc23)c1F	46 to 47 °C
Cc1nc(N)nc(N)c1OCCCOc1ccccc1C(F)(F)F	132 to 134 °C
CCCCCc1cccc2c1C(=O)N(OC1C(CO)OC(n3cnc4c(N)ncnc43)C1O)C2=O (stereo not given)	159 to 160 °C
COC(=O)c1cc2cc(OC)ccc2n1C	200 °C
